ChEMBL document CHEMBL3797065, “Kaurane and abietane diterpenoids from the roots of Tripterygium wilfordii and their cytotoxic evaluation” (Bioorg Med Chem Lett, 2016)

Key:
[1] = system: U-251; experiment: Cytotoxicity against human U251 cells after 48 hrs by MTT assay; type: functional, cell-based; details: U-251, 48 h
[2] = system: A549; experiment: Cytotoxicity against human A549 cells after 48 hrs by MTT assay; type: functional, cell-based; details: A549, 48 h
[3] = Cytotoxicity against human Hep3B cells after 48 hrs by MTT assay; type: functional, cell-based, Hep 3B2
[4] = system: MCF7; experiment: Cytotoxicity against human MCF7 cells after 48 hrs by MTT assay; type: functional, cell-based; details: MCF7, 48 h
[5] = system: Bcap37; experiment: Cytotoxicity against human Bcap37 cells after 48 hrs by MTT assay; type: functional, cell-based; details: Bcap37, 48 h
[6] = system: HepG2; experiment: Cytotoxicity against human HepG2 cells after 48 hrs by MTT assay; type: functional, cell-based; details: HepG2, 48 h

Row | SMILES | IC50 [1] [µM] | IC50 [2] [µM] | IC50 [3] [µM] | IC50 [4] [µM] | IC50 [5] [µM] | IC50 [6] [µM]
1 | CC1=C(C(=O)O)CC[C@]2(C)C3=C(CC[C@@H]12)C(=O)C(C(C)C)=CC3=O | > 100 | > 100 | > 100 | > 100 | > 100 | > 100
2 | CO[C@@H]1OC[C@@]2(C)CCC[C@]13[C@@H]1CC[C@H]4C[C@@]1(CC[C@@H]23)C[C@@]4(C)O | > 100 | > 100 | > 100 | > 100 | > 100 | > 100
3 | COc1c(C(C)C)cc(O)c2c1CC[C@H]1C(C)(C)C(=O)CC[C@]21C | 29.3 | > 100 | 39.8 | > 100 | > 100 | 47.8
4 | COc1c(C(C)C)cc(O)c2c1CCC1=C(C)C(=O)CC[C@@]12C | 8.62 | 17.4 | 18.2 | 5.73 | 7.93 | 5.1
5 | CC(C)c1ccc2c(c1)CC[C@H]1[C@@](C)(CO)C(=O)CC[C@]21C | > 100 | 39 | > 100 | > 100 | > 100 | 32.7
6 | C[C@@]1(O)C[C@@]23CC[C@H]4[C@@]5(CCC[C@]4(C)C(=O)OC5)[C@]2(O)CC[C@H]1C3 | > 100 | > 100 | > 100 | > 100 | > 100 | > 100
7 | COc1cc2c(c(O)c1C(C)C)CC[C@H]1C(C)=C(C(=O)O)CC[C@]21C | > 100 | > 100 | 29.7 | > 100 | 37.6 | 42.5
8 | CC(C)c1ccc2c(c1O)CC[C@H]1[C@@](C)(CO)[C@@H](O)CC[C@]21C | > 100 | 30.1 | 48.7 | 23.8 | > 100 | 36.3
9 | CC(C)C1=CC(=O)C2=C(CC[C@H]3[C@@](C)(CO)[C@@H](O)CC[C@]23C)C1=O | 43.6 | 11.5 | 17.4 | 11.4 | > 100 | > 100
10 | C[C@@]12CCC[C@]3(C(=O)OC1)[C@@H]2CC[C@@]12C[C@H](CC[C@H]13)[C@](C)(O)C2 | > 100 | > 100 | > 100 | > 100 | > 100 | 97.1
11 | CC(C)C1=C[C@@]2(O)OO[C@@H]3CC(=O)[C@](C)(CO)[C@@H]4CCC(=C2[C@]43C)C1=O | 24.9 | 10.7 | 17.7 | > 100 | > 100 | > 100
12 | CC(C)c1ccc2c(c1O)CC[C@H]1C(C)(C)[C@@H](O)CC[C@]21C | > 100 | > 100 | > 100 | > 100 | > 100 | 46.3
13 | COc1c(C(C)C)cc(O)c2c1CC[C@H]1C(C)=C(C(=O)O)CC[C@]21C | > 100 | > 100 | > 100 | > 100 | > 100 | > 100
14 | C[C@]12C3=C4CC=C[C@@]3(O)OO[C@@H]1CC1=C(COC1=O)[C@@H]2CC4 | 20.2 | 11.3 | 18 | 23.3 | 8.11 | 10.9
15 | COc1c(C(C)C)cc(O)c2c1CC[C@H]1[C@@](C)(CO)C(=O)CC[C@]21C | > 100 | 21.6 | 28.7 | 23.2 | > 100 | 21.9
16 | CC(C)C1=CC(=O)C2=C(CC[C@H]3[C@@](C)(CO)C(=O)CC[C@]23C)C1=O | > 100 | 19.9 | 26 | 16.7 | 13.3 | 26.3
17 | C=C1C(OC(C)=O)[C@]23[C@H](O)[C@H]1CC[C@H]2[C@]12CCCC(C)(C)[C@H]1[C@H](OC(C)=O)[C@@]3(O)OC2 (stereo not given in full) | > 100 | 21.9 | 48.3 | 37.4 | > 100 | 38.4
18 | CO[C@@H]1OC[C@@]23CCC[C@@]1(C)[C@@H]2CC[C@@]12C[C@@H](CC[C@H]13)[C@](C)(O)C2 (relative stereo) | 13.5 | 39.3 | 48.9 | > 100 | 11.6 | 28.5
19 | O=c1[nH]cc(F)c(=O)[nH]1 [FLUOROURACIL] | 24.7 | 21.6 | 17.5 | – | 15.5 | –
20 | C[C@@]1(O)C[C@@]23CC[C@H]4[C@@]5(CCC[C@]4(C)C(=O)OC5)[C@@H]2CC[C@H]1C3 [TRIPTERIFORDIN] | > 100 | > 100 | > 100 | > 100 | > 100 | > 100
21 | CC(C)c1ccc2c(c1)C(=O)C[C@H]1[C@@](C)(CO)C(=O)CC[C@]21C [TRIPTOBENZENE N] | > 100 | 32.8 | > 100 | > 100 | > 100 | 43.7
22 | CC(C)c1ccc2c(c1O)CC[C@H]1C3=C(CC[C@]21C)C(=O)OC3 [TRIPTOPHENOLIDE] | > 100 | 42.9 | 22.2 | > 100 | 22.4 | 17
